Where only a bound is given, the exact number is not on record here.

One test concerns hIL17. Put plainly: IL-17 release from differentiated primary human T-cells (IL-17A HTRF assay). The class given is cell-based. To be noted: inhibition of IL-17A levels; primary human CD4+ T cells differentiated into Th17 cells, 46-hour incubation. A digest of the protocol: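 Cryopreserved primary human CD4+ T cells were activated with anti-CD3/CD28 beads and driven to Th17 with TGF-β, IL-6, IL-23 and IL-1β in the presence of compound (2-500 nM or 4-1000 nM) for 46 h at 37° C. Supernatant IL-17A was quantified by HTRF against a standard curve and normalized to DMSO. IC50s came from variable-slope fits, with viability read by CyQuant.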
A general note: TR-FRET usually uses a lanthanide donor and a delayed reading to cut background.

The target in the next test is T1, human RORγ (Homo sapiens, UniProt P51449).
T1 sequence (P51449 269-508 limits assumed): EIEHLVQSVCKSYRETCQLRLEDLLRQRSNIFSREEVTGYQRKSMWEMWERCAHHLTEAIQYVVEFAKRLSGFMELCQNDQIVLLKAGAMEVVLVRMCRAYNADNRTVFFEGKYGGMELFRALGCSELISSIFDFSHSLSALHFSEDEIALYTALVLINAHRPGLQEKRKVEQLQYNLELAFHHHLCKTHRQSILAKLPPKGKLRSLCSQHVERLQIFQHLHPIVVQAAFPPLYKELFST
In words: RORγ assay (GAL4-RORγ hybrid luciferase reporter, inverse-agonist activity). The class given is cell-based. To be noted: GAL4-RORγ hybrid reporter cells, 23 hours. The procedure, abridged:
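Human cell line expressing GAL4-DBD/RORγ hybrid with UAS-driven luciferase, treated in triplicate with compound (0.4–200 nM or 2–1000 nM) for 23 h at 37 °C. Luminescence normalized to DMSO; viability measured in parallel by multiplex assay. IC50 for RORγ and viability by variable-slope nonlinear regression.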

In a further test the test system is NRF2. Put plainly: AREc32 luciferase reporter assay. To be noted: EC2×: concentration required to increase GST ARE Luciferase reporter activity by 2-fold; AREc32 cells, 19 hours. The test is classed as cell-based, human. The procedure, abridged:
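AREc32 cells (MCF-7 stably carrying eight rat GSTA2 ARE copies driving firefly luciferase) treated 19 h with compound (0.4–200 nM or 2–1000 nM), triplicate. Luminescence normalized to DMSO as fold-induction; variable-slope fit capped at 50-fold; EC2× = concentration giving 2-fold induction.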
(In general: In a reporter assay the amount or activity of a reporter protein is the signal.)

In test [1] the test system is IFNγ-induced Nitric Oxide production. Put plainly: Nitric oxide production assay in RAW 264.7 mouse macrophages. The test is classed as cell-based. To be noted: RAW264.7, suppression of IFNγ-induced NO production normalized to cell viability (WST-1), RAW 264.7, 24 hours IFNγ. A digest of the protocol:
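Cells pre-treated 2 h with compound (0.4-200 nM or 2-1000 nM) in RPMI 1640 + 0.5% FBS, then stimulated with recombinant mouse IFNγ for 24 h at 37 °C. Nitrite measured by Griess reagent, viability by WST-1; IC50 from NO suppression normalized to viability and to DMSO/IFNγ controls.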
A general note: Formazan colour is commonly taken as a measure of viable cells.

In general, IC50 refers to the concentration at which inhibition is half-maximal. In the case of `CNC(=O)[C@]1(C)C(=O)C(C#N)=C[C@]2(C)C3=CC(=O)[C@@H]4[C@@H]5CC(C)(C)CC[C@]5(C(=O)OC)CC[C@@]4(C)[C@]3(C)CC[C@@H]12` [Compound T13, methyl (4aS,6aR,6bS,8aR,9S,12aS,14aR,14bS)-11-cyano-2,2,6a,6b,9,12a-hexamethyl-9-(methylcarbamoyl)-10,14-dioxo-1,3,4,5,6,6a,6b,7,8,8a,9,10,12a,14,14a,14b-hexadecahydropicene-4a(2H)-carboxylate], the half-maximal inhibitory concentration (IC50) turned out to be 49 nM with hIL17, 161 nM at human RORγ and 295 nM in test [1]. Also, the “EC2x: concentration giving 2-fold induction of ARE luciferase reporter” value in the test on NRF2 is listed as 567 nM.

On to `COC(=O)[C@]12CCC(C)(C)C[C@H]1[C@H]1C(=O)C=C3[C@@]4(C)C=C(C#N)C(=O)[C@@](C)(C(=O)N(C)C)[C@@H]4CC[C@@]3(C)[C@]1(C)CC2` [Compound T14], for which the IC50 in the test on hIL17 worked out at 46 nM; on human RORγ, 139 nM; in test [1] it was 164 nM. Moreover, in the test on NRF2, the “EC2x: concentration giving 2-fold induction of ARE luciferase reporter” value is greater than 1000 nM.

On to `COC(=O)[C@]12CCC(C)(C)C[C@H]1[C@H]1C(=O)C=C3[C@@]4(C)C=C(C#N)C(=O)[C@@](C)(C(N)=O)[C@@H]4CC[C@@]3(C)[C@]1(C)CC2` [Compound T15, methyl (4aS,6aR,6bS,8aR,9S,12aS,14aR,14bS)-9-carbamoyl-11-cyano-2,2,6a,6b,9,12a-hexamethyl-10,14-dioxo-1,3,4,5,6,6a,6b,7,8,8a,9,10,12a,14,14a,14b-hexadecahydropicene-4a(2H)-carboxylate], for which the IC50 in the test on hIL17 amounted to 65 nM; at human RORγ it was 206 nM; in test [1], 714 nM. Further, in the test with NRF2, the “EC2x: concentration giving 2-fold induction of ARE luciferase reporter” value came out at 612 nM.

On to `COC(=O)[C@]12CCC(C)(C)C[C@H]1[C@H]1C(=O)C=C3[C@@]4(C)C=C(C#N)C(=O)[C@@](C)(c5nnc(C)o5)[C@@H]4CC[C@@]3(C)[C@]1(C)CC2` [Compound T16, methyl (4aS,6aR,6bS,8aR,9R,12aS,14aR,14bS)-11-cyano-2,2,6a,6b,9,12a-hexamethyl-9-(5-methyl-1,3,4-oxadiazol-2-yl)-10,14-dioxo-1,3,4,5,6,6a,6b,7,8,8a,9,10,12a,14,14a,14b-hexadecahydropicene-4a(2H)-carboxylate], for which the values for the IC50 (in the test with hIL17; at human RORγ; in test [1]) were 92 nM, 406 nM and 615 nM, respectively. In the test on NRF2, the “EC2x: concentration giving 2-fold induction of ARE luciferase reporter” value was greater than 1000 nM.

As for `COCC[C@]1(C)C(=O)C(C#N)=C[C@]2(C)C3=CC(=O)[C@@H]4[C@@H]5CC(C)(C)CC[C@]5(C(=O)OC)CC[C@@]4(C)[C@]3(C)CC[C@H]21` [Compound T17, methyl (4aS,6aR,6bS,8aR,9S,12aS,14aR,14bS)-11-cyano-9-(2-methoxyethyl)-2,2,6a,6b,9,12a-hexamethyl-10,14-dioxo-1,3,4,5,6,6a,6b,7,8,8a,9,10,12a,14,14a,14b-hexadecahydropicene-4a(2H)-carboxylate], the figures for the IC50 (in the test with hIL17; on human RORγ; in test [1]) were 30 nM, 250 nM and 19.5 nM, respectively. Also, the “EC2x: concentration giving 2-fold induction of ARE luciferase reporter” value with NRF2 is 64 nM.

Consider `COC(=O)[C@]12CCC(C)(C)C[C@H]1[C@H]1C(=O)C=C3[C@@]4(C)C=C(C#N)C(=O)[C@@](C)(CCO[Si](C)(C)C(C)(C)C)[C@@H]4CC[C@@]3(C)[C@]1(C)CC2` [Compound T18, methyl (4aS,6aR,6bS,8aR,9S,12aS,14aR,14bS)-9-(2-((tert-butyldimethylsilyl)oxy)ethyl)-11-cyano-2,2,6a,6b,9,12a-hexamethyl-10,14-dioxo-1,3,4,5,6,6a,6b,7,8,8a,9,10,12a,14,14a, 14b-hexadecahydropicene-4a(2H)-carboxylate], for which the values for the 50% inhibitory concentration (IC50) (in the test on hIL17; at human RORγ; in test [1]) were 24 nM, 583 nM and 78.5 nM, respectively. The “EC2x: concentration giving 2-fold induction of ARE luciferase reporter” value in the test with NRF2 turned out to be 585 nM.

Source of the values: patent US11584775B2, “C4-modified oleanolic acid derivatives for inhibition of IL-17 and other uses” (REATA PHARMACEUTICALS, INC., priority 2015, dated 2023).
